Test results as given in ChEMBL document CHEMBL3576767, “Neo-clerodane diterpenoids from Scutellaria barbata with activity against Epstein-Barr virus lytic replication” (J Nat Prod, 2015).

Experiments:
Human gammaherpesvirus 4 [1] = assay: Antiviral activity against EBV infected in TPA and sodium butyrate-induced P3HR1 cells assessed as inhibition on EBV lytic replication at 20 uM incubated for 48 hrs by SYBR green dye based real-time PCR method; type: functional; settings: human gammaherpesvirus 4, P3HR-1, 48 h
[2] = Selectivity index, ratio of CC50 for human P3HR1 cells to EC50 for EBV infected in TPA and sodium butyrate-induced P3HR1 cells; parameters: species or system P3HR-1
[3] = Cytotoxicity against human P3HR1 cells assessed as reduction in cell viability incubated for 48 hrs by trypan blue dye exclusion assay; type: cell-based, P3HR-1
Human gammaherpesvirus 4 [4] = assay: Antiviral activity against EBV infected in TPA and sodium butyrate-induced P3HR1 cells assessed as inhibition on EBV lytic replication incubated for 48 hrs by SYBR green dye based real-time PCR method; type: functional, organism-based; settings: human gammaherpesvirus 4, P3HR-1, 48 h

Compound `CC(=O)O[C@H]1[C@H](OC(=O)c2cccnc2)[C@@]2(C)C(C)=CCC[C@@H]2[C@@](C)(/C=C/C2=CC(=O)OC2)[C@@]1(C)O` has an inhibition at 20 µM (Human gammaherpesvirus 4 [1]) of less than 50%.
For `CC1=CCC[C@H]2[C@@]1(C)[C@@H](OC(=O)c1ccccc1)[C@H](OC(=O)C(C)C)[C@](C)(O)[C@]2(C)/C=C/C1=CC(=O)OC1`, the “Ratio CC50/EC50” value [2] was 5.4, the CC50 at 48 h [3] was 49.7 µM and the EC50 (Human gammaherpesvirus 4 [4]) was 9.2 µM. It also gave an inhibition at 20 µM (Human gammaherpesvirus 4 [1]) greater than 50%.
With `CC(=O)OC(C(=O)O[C@H]1[C@H](OC(=O)c2ccccc2)[C@@]2(C)C(C)=CCC[C@@H]2[C@@](C)(/C=C/C2=CC(=O)OC2)[C@@]1(C)O)C(C)C` (some centres not stated) the “Ratio CC50/EC50” value [2] was 46.1, the CC50 at 48 h [3] was 148 µM and the EC50 (Human gammaherpesvirus 4 [4]) was 3.2 µM. It also gave an inhibition at 20 µM (Human gammaherpesvirus 4 [1]) greater than 50%.
In the case of `CC(=O)O[C@@H](CC1=CC(=O)OC1)[C@]1(C)[C@H]2CCC=C(C)[C@]2(C)[C@@H](OC(=O)c2ccccc2)[C@H](O)[C@]1(C)O`, the “Ratio CC50/EC50” value [2] is reported as 4.3, the CC50 at 48 h [3] is reported as 37.8 µM and the EC50 (Human gammaherpesvirus 4 [4]) is reported as 8.7 µM. The inhibition at 20 µM (Human gammaherpesvirus 4 [1]) was greater than 50%.
In the case of `CC1=CCC[C@H]2[C@@]1(C)[C@@H](OC(=O)c1ccccc1)[C@H](O)[C@]1(C)O[C@]3(COC(=O)C3)C[C@H](OC(=O)c3ccccc3)[C@]21C`, the “Ratio CC50/EC50” value [2] is reported as 3.6, the CC50 at 48 h [3] is reported as 66.5 µM and the EC50 (Human gammaherpesvirus 4 [4]) is reported as 18.3 µM. It also gave an inhibition at 20 µM (Human gammaherpesvirus 4 [1]) greater than 50%.
With `CC1=CCC[C@H]2[C@@]1(C)[C@@H](OC(=O)c1ccccc1)[C@H](O)[C@]1(C)O[C@]3(COC(=O)[C@@H]3O)C[C@H](OC(=O)c3ccccc3)[C@]21C` the “Ratio CC50/EC50” value [2] was 2.9, the CC50 at 48 h [3] was 15.1 µM and the EC50 (Human gammaherpesvirus 4 [4]) was 5.2 µM. It also gave an inhibition at 20 µM (Human gammaherpesvirus 4 [1]) greater than 50%.
For `CC1=CCC[C@H]2[C@@]1(C)[C@@H](OC(=O)c1ccccc1)[C@H](OC(=O)c1cccnc1)[C@](C)(O)[C@]2(C)/C=C/C1=CC(=O)OC1`, the “Ratio CC50/EC50” value [2] was 61.1, the CC50 at 48 h [3] was 1440 µM and the EC50 (Human gammaherpesvirus 4 [4]) was 23.6 µM. The inhibition at 20 µM (Human gammaherpesvirus 4 [1]) was greater than 50%.
For `CC1=CCC[C@H]2[C@@]1(C)[C@@H](OC(=O)c1ccccc1)[C@H](OC(=O)c1ccccc1)[C@](C)(O)[C@]2(C)/C=C/C1=CC(=O)OC1`, the “Ratio CC50/EC50” value [2] was 2.1, the CC50 at 48 h [3] was 30 µM and the EC50 (Human gammaherpesvirus 4 [4]) was 14.3 µM. The inhibition at 20 µM (Human gammaherpesvirus 4 [1]) was greater than 50%.
With `CC(=O)OC(C(=O)O[C@H]1[C@H](OC(=O)c2cccnc2)[C@@]2(C)C(C)=CCC[C@@H]2[C@@](C)(/C=C/C2=CC(=O)OC2)[C@@]1(C)O)C(C)C` (some centres not stated) the “Ratio CC50/EC50” value [2] was 16.4, the CC50 at 48 h [3] was 307 µM and the EC50 (Human gammaherpesvirus 4 [4]) was 18.7 µM. For the same compound, the inhibition at 20 µM (Human gammaherpesvirus 4 [1]) was greater than 50%.
For `CC1=CCC[C@H]2[C@@]1(C)[C@@H](OC(=O)c1ccccc1)[C@H](O)[C@](C)(O)[C@]2(C)/C=C/C1=CC(=O)OC1`, the “Ratio CC50/EC50” value [2] was 7.5, the CC50 at 48 h [3] was 68.3 µM and the EC50 (Human gammaherpesvirus 4 [4]) was 9.1 µM. It also gave an inhibition at 20 µM (Human gammaherpesvirus 4 [1]) greater than 50%.
For `CC(=O)O[C@H]1[C@H](OC(C)=O)[C@]2(C)O[C@]3(CC[C@]2(C)[C@H]2[C@H](OC(=O)c4ccccc4)CC=C(C)[C@]12C)COC(=O)C3`, the “Ratio CC50/EC50” value [2] was 57.2, the CC50 at 48 h [3] was 738 µM and the EC50 (Human gammaherpesvirus 4 [4]) was 12.9 µM. The inhibition at 20 µM (Human gammaherpesvirus 4 [1]) was greater than 50%.
With `CC(=O)O[C@H]1[C@H](OC(=O)c2cccnc2)[C@@]2(C)C(C)=CC[C@@H](OC(=O)c3cccnc3)[C@@H]2[C@@]2(C)CC[C@]3(COC(=O)C3)O[C@@]12C` the “Ratio CC50/EC50” value [2] was 109.2, the CC50 at 48 h [3] was 1790 µM and the EC50 (Human gammaherpesvirus 4 [4]) was 16.4 µM. It also gave an inhibition at 20 µM (Human gammaherpesvirus 4 [1]) greater than 50%.
For `C=CC(C)(C)c1cc2cc3c(cc2oc1=O)O[C@H](C(C)(C)OC(C)=O)C3`, the “Ratio CC50/EC50” value [2] was greater than 39.6, the CC50 at 48 h [3] was greater than 150 µM and the EC50 (Human gammaherpesvirus 4 [4]) was 5.43 µM.
`CC(=O)O[C@H]1[C@H](OC(=O)C(C)C)[C@](C)(O)[C@](C)(/C=C/C2=CC(=O)OC2)[C@H]2CCC=C(C)[C@]12C` showed an inhibition at 20 µM (Human gammaherpesvirus 4 [1]) of less than 50%.
In the case of `CC1=CCC[C@H]2[C@@]1(C)[C@@H](OC(=O)c1cccnc1)[C@H](OC(=O)C(C)C)[C@](C)(O)[C@]2(C)/C=C/C1=CC(=O)OC1`, the inhibition at 20 µM (Human gammaherpesvirus 4 [1]) is reported as less than 50%.
For `CC(=O)O[C@H]1[C@H](OC(=O)c2ccccc2)[C@](C)(O)[C@](C)(/C=C/C2=CC(=O)OC2)[C@H]2CCC=C(C)[C@]12C`, the inhibition at 20 µM (Human gammaherpesvirus 4 [1]) was less than 50%.
Compound `CC(=O)O[C@@H](CC1=CC(=O)OC1)[C@]1(C)[C@H]2CCC=C(C)[C@]2(C)[C@@H](OC(C)=O)[C@H](OC(=O)C(C)C)[C@]1(C)O` has an inhibition at 20 µM (Human gammaherpesvirus 4 [1]) of less than 50%.
Work on `CC(=O)O[C@@H](CC1=CC(=O)OC1)[C@]1(C)[C@H]2CCC=C(C)[C@]2(C)[C@@H](OC(=O)c2cccnc2)[C@H](OC(=O)C(C)C)[C@]1(C)O` yielded an inhibition at 20 µM (Human gammaherpesvirus 4 [1]) of less than 50%.
`CC(=O)O[C@@H](CC1=CC(=O)OC1)[C@]1(C)[C@H]2CCC=C(C)[C@]2(C)[C@@H](OC(C)=O)[C@H](OC(C)=O)[C@]1(C)O` showed an inhibition at 20 µM (Human gammaherpesvirus 4 [1]) of less than 50%.
In the case of `CC(=O)O[C@@H](CC1=CC(=O)OC1)[C@]1(C)[C@H]2CCC=C(C)[C@]2(C)[C@@H](OC(=O)c2cccnc2)[C@H](OC(=O)c2cccnc2)[C@]1(C)O`, the inhibition at 20 µM (Human gammaherpesvirus 4 [1]) is reported as less than 50%.
Work on `C=C1[C@@H](O)CC[C@H]2[C@@]1(C)[C@@H](OC(=O)c1ccccc1)[C@H](OC(=O)c1ccccc1)[C@](C)(O)[C@]2(C)/C=C/C1=CC(=O)OC1` yielded an inhibition at 20 µM (Human gammaherpesvirus 4 [1]) of less than 50%.
For `CC(=O)O[C@H]1[C@H](OC(C)=O)[C@](C)(O)[C@](C)(/C=C/C2=CC(=O)OC2)[C@H]2CCC=C(C)[C@]12C`, the inhibition at 20 µM (Human gammaherpesvirus 4 [1]) was less than 50%.
`CC1=CCC[C@H]2[C@@]1(C)[C@@H](OC(=O)c1cccnc1)[C@H](OC(=O)c1cccnc1)[C@](C)(O)[C@]2(C)/C=C/C1=CC(=O)OC1` gave an inhibition at 20 µM (Human gammaherpesvirus 4 [1]) of less than 50%.
`CC(=O)O[C@H]1[C@H](OC(C)=O)[C@]2(C)O[C@]3(CC[C@]2(C)[C@H]2[C@H](OC(=O)c4cccnc4)CC=C(C)[C@]12C)COC(=O)C3` gave an inhibition at 20 µM (Human gammaherpesvirus 4 [1]) of less than 50%.
`CC(=O)O[C@H]1[C@H](OC(=O)c2cccnc2)[C@@]2(C)C(C)=CCC[C@@H]2[C@@]2(C)[C@@H](OC(=O)c3cccnc3)C[C@@]3(COC(=O)C3)O[C@@]12C` gave an inhibition at 20 µM (Human gammaherpesvirus 4 [1]) of less than 50%.
With `CC1=CCC[C@H]2[C@@]1(C)[C@@H](OC(=O)c1cccnc1)[C@H](OC(=O)c1cccnc1)[C@]1(C)O[C@]3(COC(=O)C3)C[C@H](OC(=O)c3cccnc3)[C@]21C` the inhibition at 20 µM (Human gammaherpesvirus 4 [1]) was less than 50%.
Compound `CC(=O)O[C@@H](CC1=CC(=O)OC1)[C@]1(C)[C@H]2CCC=C(C)[C@]2(C)[C@@H](OC(=O)c2cccnc2)[C@H](OC(=O)c2ccccc2)[C@]1(C)O` [BARBATELLARINES B] has an inhibition at 20 µM (Human gammaherpesvirus 4 [1]) of less than 50%.
